# Reference: patent US11266753B2, “2-[5-(imidazol-1-ylmethyl)pyridin-3-yl]benzimtdazole derivative compound, and medicament including same” (Nihon Medi-Physics Co., Ltd., priority 2017, dated 2022)
# Legend:
# [1] = Pharmacokinetic distribution experiment (PET, SUV of liver, kidney, spleen); type: in vivo, normal rats; settings: FIG. 2; for radioactivity accumulation in tissues (the liver, kidney, and spleen) surrounding the adrenal glands: PET SUV at 60 minutes and 180 minutes after the administration; for high radioactivity accumulation that would be an obstacle in the adrenal gland imaging: liver, kidney, spleen, 60 and 180 minutes after the administration
# Description: The compounds according to the present invention (Compounds [^18F]101, [^18F]102, and [^18F]103) were administered to three normal rats without anesthesia. Imaging data for 15 minutes under isoflurane anesthesia were collected at 60 minutes and 180 minutes after the administration. The imaging data were subjected to image reconstruction by a positron emission tomography (PET) device (instrument: eXplore VISTA, manufactured by GE Healthcare Japan Corporation), and then a volume of interest (VOI) was set in each of the liver, kidney, and spleen, and a standardized uptake value (SUV) of each tissue was determined as in formula (5).
# [2] = system: lesion region having an aldosterone-producing tumor site (human adrenal section); assay: In vitro autoradiography using human adrenal tumor: binding ability to lesion region; settings: for B2, binding ability to a lesion region, ratio to reference compound: relative to [123I]IMTO = 1, human plasma, 37° C., 10 minutes; for concentration shown at the lesion sites on autoradiograms (FIG. 1): Samples 1 to 6, compared with Compound [18F]100
# Description: (§1) By using a frozen human adrenal tissue specimen containing a lesion region having an aldosterone-producing tumor site, and a normal region in an adjacent part to the lesion region, in vitro autoradiography was performed. Specifically, a slide glass on which a section prepared by embedding the specimen in an embedding medium for preparing a frozen tissue section (Tissue-Tek O.C.T. Compound, manufactured by Sakura Finetek Japan Co., Ltd.), and thinly cutting the embedded specimen of human adrenal tissue to have a thickness of 7 μm had been pasted (stored at −80° C., hereinafter, referred to as human adrenal section) was used for experiment.
# (§2) A solution of each of Compounds [^18F]100, [^18F]101, [^18F]102, and […], which had been obtained in Reference Example 2, Example 2, 4, or 6, and Compound [^123I]IMTO (reference compound) was dispensed into a vial, and the amount of radioactivity was measured by a radioisotope dose calibrator (CRC-15R, manufactured by Capintec, Inc.) The radioactive concentration of a solution that had been prepared by adding each solution obtained above to human plasma (hereinafter referred to as reaction mixture) was measured by using an autowell gamma system (ARC-7001, manufactured by Hitachi, Ltd.).
# (§3) For preincubation, a human adrenal section was immersed in phosphate-buffered saline (PBS) at 37° C. for 5 minutes, and then immersed in human plasma at 37° C. for 5 minutes. Next, as a reaction step, the human adrenal section was immersed in the reaction mixture at 37° C. for 10 minutes. After that, the human adrenal section was washed with human plasma five times at 37° C. for 2 minutes, and then air-dried. Further, a piece of filter paper, which had been cut out into a circular shape and had been pasted on a slide glass, was impregnated with a known amount of the reaction mixture, and then air dried, and the resultant piece was used as a standard radiation source.
# (§4) The air-dried human adrenal section and the air-dried standard radiation source were exposed to an imaging plate (BAS-SR2040, manufactured by Fujifilm Corporation) (IP sheet), and autoradiograms were obtained by a fluoro image analyzer (Typhoo FLA 7000 IP, manufactured by GE Healthcare Japan Corporation). A region of interest (ROI) was set in each of the lesion region and normal region obtained on the autoradiograms, and the radiation count was determined. The ROI was also set for the standard radiation source, and the radiation count was determined.
# (§5) For the autoradiograms obtained for the human adrenal section, the radiation count (correction value) of each region (lesion region or normal region) was determined as in formula (1) as a correction value to the standard radiation source.
# (§6) The binding ability of the compound according to the present invention (each of Compounds [^18F]101, [^18F]102, and [^18F]103) to each region (lesion region or normal region) was determined as in formulas (2) and (3) as the relative value in a case where the radiation count (correction value) in each region of ^[123I]IMTO (reference compound) was set to 1. Further, the lesion/normal ratio was determined as in formula (4).
# [3] = system: normal region in an adjacent part to the lesion region (human adrenal section); assay: In vitro autoradiography using human adrenal tumor: binding ability to normal region; settings: relative to [123I]IMTO = 1, human plasma, 37° C., 10 minutes
# Description: as §1, §2, §3, §4, §5, §6
"radioactivity accumulation in tissues (the liver, kidney, and spleen) surrounding the adrenal glands [1]",high radioactivity accumulation that would be an obstacle in the adrenal gland imaging [1],"B2/B1, lesion/normal ratio ([2]; Sample 1)","B2, binding ability to a lesion region, ratio to reference compound ([2]; Sample 1)","B2/B1, lesion/normal ratio ([2]; Sample 2)","B2, binding ability to a lesion region, ratio to reference compound ([2]; Sample 2)","B2/B1, lesion/normal ratio ([2]; Sample 3)","B2, binding ability to a lesion region, ratio to reference compound ([2]; Sample 3)","B2/B1, lesion/normal ratio ([2]; Sample 4)","B2, binding ability to a lesion region, ratio to reference compound ([2]; Sample 4)","B2/B1, lesion/normal ratio ([2]; Sample 5)","B2, binding ability to a lesion region, ratio to reference compound ([2]; Sample 5)","B2/B1, lesion/normal ratio ([2]; Sample 6)","B2, binding ability to a lesion region, ratio to reference compound ([2]; Sample 6)","B1, binding ability to a normal region, ratio to reference compound ([3]; Sample 1)","B1, binding ability to a normal region, ratio to reference compound ([3]; Sample 2)","B1, binding ability to a normal region, ratio to reference compound ([3]; Sample 3)","B1, binding ability to a normal region, ratio to reference compound ([3]; Sample 4)","B1, binding ability to a normal region, ratio to reference compound ([3]; Sample 5)",Compound,concentration shown at the lesion sites on autoradiograms (FIG. 1) [2],other results
decreased over time,not observed,14.44,0.19,19.66,0.24,8.44,0.32,8.28,0.21,14.94,0.13,37.80,0.45,0.00,0.01,0.03,0.01,0.01,"Fc1ccc2nc(-c3cncc(Cn4ccnc4)c3)n(CC[18F])c2c1 [Compound [^18F]101, 6-fluoro-1-(2-[^18F]fluoroethyl)-2-[5-(imidazol-1-ylmethyl)pyridin-3-yl]benzimidazole]",higher concentration than that of Compound [^18F]100,"B1, binding ability to a normal region, ratio to reference compound ([3]; Sample 6): 0.01"
decreased over time,not observed,6.78,0.19,8.69,0.31,8.20,0.65,4.32,0.41,9.21,0.14,23.93,0.63,0.01,0.03,0.05,0.05,0.01,"Fc1cc2nc(-c3cncc(Cn4ccnc4)c3)n(CC[18F])c2cc1F [Compound [^18F]102, 5,6-difluoro-1-(2-[^18F]fluoroethyl)-2-[5-(imidazol-1-ylmethyl)pyridin-3-yl]benzimidazole]",higher concentration than that of Compound [^18F]100,"B1, binding ability to a normal region, ratio to reference compound ([3]; Sample 6): 0.03"
decreased over time,not observed,4.57,0.23,12.05,0.46,2.68,0.79,2.03,0.33,5.17,0.29,15.42,1.09,0.02,0.04,0.20,0.08,0.04,"N#Cc1cc2c(cc1F)nc(-c1cncc(Cn3ccnc3)c1)n2CC[18F] [Compound [^18F]103, 2-[5-(1H-imidazol-1-ylmethyl)pyridin-3-yl]-5-fluoro-1-(2-[^18F]fluoroethyl)-1H-benzo[d]imidazole-6-carbonitrile]",higher concentration than that of Compound [^18F]100,"B1, binding ability to a normal region, ratio to reference compound ([3]; Sample 6): 0.07"
